Measurements published in US20230077362A1 (CORTEVA AGRISCIENCE LLC, priority 2019, published 2023).
Like-named read-outs stand apart in the source and are kept apart here.

Assays:
[1] = tested on: Beet Armyworm (Spodoptera exigua) ("BAW"), second instar larvae; experiment: Bioassay on beet armyworm (BAW), 128-well diet tray assay; assay type: in vivo; conditions: for pest or weed control at 50 µg/cm2: Spodoptera exigua; for BAW rating: Table ABC, species BAW, C = not tested, D = no activity noticed
How it was run: (§1)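 Covered trays were held at 25° C. under a 14:10 light-dark cycle for five to seven days. Percent mortality was then scored in each well, and activity across eight wells was averaged.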

[2] = tested on: Cabbage Looper (Trichoplusia ni) ("CL"), second instar larvae; experiment: Bioassay on cabbage looper (CL), 128-well diet tray assay; assay type: in vivo; conditions: for pest or weed control at 50 µg/cm2: Trichoplusia ni; for CL rating: Table ABC, species CL, C = not tested, D = no activity noticed
How it was run: as §1

[3] = read-out: BAW (Biological Results, rating)
[4] = read-out: CL (Biological Results, rating)

Compound | pest or weed control at 50 µg/cm2 [1, 3] [%] | pest or weed control at 50 µg/cm2 [2, 4] [%] | pest or weed control at 50 µg/cm2 ([1]; read-out: BAW rating) [%] | pest or weed control at 50 µg/cm2 ([2]; read-out: CL rating) [%] | further results
O=C(/N=C1\SCC(=O)N1c1cc(C(F)(F)F)ccc1C(F)(F)F)Nc1ccc(-c2ncn(-c3ccc(OC(F)(F)F)cc3)n2)cc1F [Compound J50, (Z)-1-(3-(2,5-Bis(trifluoromethyl)phenyl)-4-oxothiazolidin-2-ylidene)-3-(2-fluoro-4-(1-(4-(trifluoromethoxy)phenyl)-1H-1,2,4-triazol-3-yl)phenyl)urea] | 50 to 100 | 50 to 100 |  |  | 
CCCN(CCC)c1ccc(C(C)C)c(N2C(=O)CS/C2=N\C(=O)Nc2ccc(-c3ncn(-c4ccc(OC(F)(F)F)cc4)n3)cc2CC)c1 [Compound J161, (Z)-1-(3-(5-(Dipropylamino)-2-isopropylphenyl)-4-oxothiazolidin-2-ylidene)-3-(2-ethyl-4-(1-(4-(trifluoromethoxy)phenyl)-1H-1,2,4-triazol-3-yl)phenyl)urea] | 50 to 100 | 0 to 50 |  |  | 
(Z)-1-(3-(5-(Dimethylamino)-2-isopropylphenyl)-4-oxothiazolidin-2-ylidene)-3-(2-fluoro-4-(1-(6-(trifluoromethyl)pyridazin-3-yl))-1H-1,2,4-triazol-3-yl)phenyl)urea [Compound J393] |  |  |  |  | BAW rating [1]: A (50-100); CL rating [2]: A (50-100)
CC(C)c1ccc(N(C)C)cc1N1C(=O)CS/C1=N\C(=O)Nc1ccc(-c2ncn(-c3ccc(OC(F)(F)F)cc3)n2)cc1Cl [Compound J166, (Z)-1-(2-Chloro-4-(1-(4-(trifluoromethoxy)phenyl)-1H-1,2,4-triazol-3-yl)phenyl)-3-(3-(5-(dimethylamino)-2-isopropylphenyl)-4-oxothiazolidin-2-ylidene)urea] | 50 to 100 | 50 to 100 |  |  | 
Cc1ccc(COCC(F)F)c(N2C(=O)CS/C2=N\C(=O)Nc2ccc(-n3cnc(-c4ccc(OC(F)(F)F)cc4)n3)cc2F)c1 [Compound J692, (Z)-1-(3-(2-((2,2-Difluoroethoxy)methyl)-5-methylphenyl)-4-oxothiazolidin-2-ylidene)-3-(2-fluoro-4-(3-(4-(trifluoromethoxy)phenyl)-1H-1,2,4-triazol-1-yl)phenyl)urea] |  |  | 50 to 100 | 50 to 100 | 
COC(C)c1ccc(C)cc1N1C(=O)CS/C1=N\C(=O)Nc1ccc(-c2cn(-c3ccc(C(F)(F)F)cc3)cn2)cc1 (stereo not drawn) [Compound J513, (Z)-1-(3-(2-(1-Methoxyethyl)-5-methylphenyl)-4-oxothiazolidin-2-ylidene)-3-(4-(1-(4-(trifluoromethyl)phenyl)-1H-imidazol-4-yl)phenyl)urea] |  |  | 50 to 100 | 50 to 100 | 
CCCc1ccc(OC)cc1N1C(=O)CS/C1=N\C(=O)Nc1ccc(-c2ncn(-c3ccc(OC(F)(F)F)cc3)n2)cc1F [Compound J43, (Z)-1-(2-Fluoro-4-(1-(4-(trifluoromethoxy)phenyl)-1H-1,2,4-triazol-3-yl)phenyl)-3-(3-(5-methoxy-2-propylphenyl)-4-oxothiazolidin-2-ylidene)urea] | 50 to 100 | 50 to 100 |  |  | 
COC(C)c1ccc(C)cc1N1C(=O)CS/C1=N\C(=O)Nc1ccc(-c2ncn(-c3ccc(SC(F)(F)F)cc3)n2)cc1C (stereo not drawn) [Compound J233, (Z)-1-(3-(2-(1-Methoxyethyl)-5-methylphenyl)-4-oxothiazolidin-2-ylidene)-3-(2-methyl-4-(1-(4-((trifluoromethyl)thio)phenyl)-1H-1,2,4-triazol-3-yl)phenyl)urea] | 50 to 100 | 50 to 100 |  |  | 
Cc1ccc(COCc2ccccc2)c(N2C(=O)CS/C2=N\C(=O)Nc2ccc(-c3ncn(-c4ccc(OC(F)(F)F)cc4)n3)cc2F)c1 [Compound J571, (Z)-1-(3-(2-((Benzyloxy)methyl)-5-methylphenyl)-4-oxothiazolidin-2-ylidene)-3-(2-fluoro-4-(1-(4-(trifluoromethoxy)phenyl)-1H-1,2,4-triazol-3-yl)phenyl)urea] |  |  | 50 to 100 | 50 to 100 | 
Cc1cc(-c2ncn(-c3ccc(OC(F)(F)F)cc3)n2)ccc1NC(=O)/N=C1\SCC(=O)N1c1cc(N(C)C)ccc1OCCC(F)(F)F [Compound J102, (Z)-1-(3-(5-(Dimethylamino)-2-(3,3,3-trifluoropropoxy)phenyl)-4-oxothiazolidin-2-ylidene)-3-(2-methyl-4-(1-(4-(trifluoromethoxy)phenyl)-1H-1,2,4-triazol-3-yl)phenyl)urea] | 50 to 100 | 50 to 100 |  |  | 
CCC(C)c1ccc(C)cc1N1C(=O)CS/C1=N\C(=O)Nc1ccc(-c2ncn(-c3ccc(C(F)(F)F)cc3)n2)cc1F (stereo not drawn) [Compound J65, (Z)-1-(3-(2-(sec-Butyl)-5-methylphenyl)-4-oxothiazolidin-2-ylidene)-3-(2-fluoro-4-(1-(4-(trifluoromethyl)phenyl)-1H-1,2,4-triazol-3-yl)phenyl)urea] | 50 to 100 | 50 to 100 |  |  | 
COc1cc(-c2ncn(-c3ccc(OC(F)(F)F)cc3)n2)ccc1NC(=O)/N=C1\SCC(=O)N1c1cc(C)ccc1OCCC(F)(F)F [Compound J91, (Z)-1-(2-Methoxy-4-(1-(4-(trifluoromethoxy)phenyl)-1H-1,2,4-triazol-3-yl)phenyl)-3-(3-(5-methyl-2-(3,3,3-trifluoropropoxy)phenyl)-4-oxothiazolidin-2-ylidene)urea] | 50 to 100 | 50 to 100 |  |  | 
Cc1ccc(OCCC(F)(F)F)c(N2C(=O)CS/C2=N\C(=O)Nc2ccc(-c3ncn(-c4ccc(SC(F)(F)F)cc4)n3)cc2F)c1 [Compound J333, (Z)-1-(2-Fluoro-4-(1-(4-((trifluoromethyl)thio)phenyl)-1H-1,2,4-triazol-3-yl)phenyl)-3-(3-(5-methyl-2-(3,3,3-trifluoropropoxy)phenyl)-4-oxothiazolidin-2-ylidene)urea] | 50 to 100 | 50 to 100 |  |  | 
Cc1ccc(C(C)C)c(N2C(=O)CS/C2=N\C(=O)Nc2ccc(-c3ncn(-c4ccc(OC(F)(F)F)cc4)n3)cc2Cl)c1 [Compound J38, (Z)-1-(2-Chloro-4-(1-(4-(trifluoromethoxy)phenyl)-1H-1,2,4-triazol-3-yl)phenyl)-3-(3-(2-isopropyl-5-methylphenyl)-4-oxothiazolidin-2-ylidene)urea] | 50 to 100 | 50 to 100 |  |  | 
COc1ccc(COCC(F)(F)F)c(N2C(=O)CS/C2=N\C(=O)Nc2ccc(-c3ncn(-c4ccc(S(F)(F)(F)(F)F)cc4)n3)cc2F)c1 [Compound J565] |  |  |  |  | BAW rating [1]: A (50-100); CL rating [2]: A (50-100)
COc1ccc(CC(F)(F)F)c(N2C(=O)CS/C2=N\C(=O)NC(C)Cc2ccc(-c3ncn(-c4ccc(OC(F)(F)F)cc4)n3)cc2)c1 (stereo not drawn) [Compound H15] | 50 to 100 | 50 to 100 |  |  | 
Cc1ccc(COCC(F)F)c(N2C(=O)CS/C2=N\C(=O)Nc2ccc(-c3ncn(-c4ccc(S(F)(F)(F)(F)F)cc4)n3)cc2F)c1 [Compound J446] |  |  | 50 to 100 | 50 to 100 | 
N#Cc1ccc(OCCC(F)(F)F)c(N2C(=O)CS/C2=N\C(=O)Nc2ccc(-c3ncn(-c4ccc(SC(F)(F)F)cc4)n3)cc2)c1 [Compound J392, (Z)-1-(3-(5-Cyano-2-(3,3,3-trifluoropropoxy)phenyl)-4-oxothiazolidin-2-ylidene)-3-(4-(1-(4-((trifluoromethyl)thio)phenyl)-1H-1,2,4-triazol-3-yl)phenyl)urea] |  |  | 50 to 100 | 50 to 100 | 
Cc1ccc(C(C)C)c(N2C(=O)CS/C2=N\C(=O)Nc2ccc(-c3ncn(-c4ccc(OC(F)(F)F)cc4)n3)c(C)c2)c1 [Compound J23, (Z)-1-(3-(2-Isopropyl-5-methylphenyl)-4-oxothiazolidin-2-ylidene)-3-(3-methyl-4-(1-(4-(trifluoromethoxy)phenyl)-1H-1,2,4-triazol-3-yl)phenyl)urea] | 50 to 100 | 50 to 100 |  |  | 
COCc1ccc(C)cc1N1C(=O)CS/C1=N\C(=O)Nc1ccc(-c2noc(-c3ccc(OC(F)(F)F)cc3)n2)cc1F [Compound J772, (Z)-1-(2-Fluoro-4-(5-(4-(trifluoromethoxy)phenyl)-1,2,4-oxadiazol-3-yl)phenyl)-3-(3-(2-(methoxymethyl)-5-methylphenyl)-4-oxothiazolidin-2-ylidene)urea] |  |  | 50 to 100 | 50 to 100 | 
CC(C)c1ccc(N(C)C)cc1N1C(=O)CS/C1=N\C(=O)Nc1ccc(-c2ncn(-c3ccc(S(F)(F)(F)(F)F)cc3)n2)cc1C#N [Compound J585] |  |  |  |  | BAW rating [1]: A (50-100); CL rating [2]: A (50-100)
Cc1ccc(COCC(F)(F)F)c(N2C(=O)CS/C2=N\C(=O)Nc2ccc(-c3ncn(-c4ccc(S(F)(F)(F)(F)F)cc4)n3)cc2F)c1 [Compound J422] |  |  |  |  | BAW rating [1]: A (50-100); CL rating [2]: A (50-100)
COC(c1ccc(C)cc1N1C(=O)CS/C1=N\C(=O)Nc1ccc(-n2cnc(-c3ccc(OC(F)(F)F)cc3)n2)cc1)C(F)(F)F (stereo not drawn) [Compound J405, (Z)-1-(3-(5-Methyl-2-(2,2,2-trifluoro-1-methoxyethyl)phenyl)-4-oxothiazolidin-2-ylidene)-3-(4-(3-(4-(trifluoromethoxy)phenyl)-1H-1,2,4-triazol-1-yl)phenyl)urea] |  |  | 50 to 100 | 50 to 100 | 
Cc1ccc(OCCC(F)(F)F)c(N2C(=O)CS/C2=N\C(=O)Nc2ccc(-c3cn(-c4ccc(C(F)(F)F)cn4)cn3)cc2F)c1 [Compound J484, (Z)-1-(2-Fluoro-4-(1-(5-(trifluoromethyl)pyridin-2-yl)-1H-imidazol-4-yl)phenyl)-3-(3-(5-methyl-2-(3,3,3-trifluoropropoxy)phenyl)-4-oxothiazolidin-2-ylidene)urea] |  |  | 50 to 100 | 50 to 100 | 
